Test results published in US11203601B2, “Tricyclic compounds as glycogen synthase kinase 3 (GSK3) inhibitors and uses thereof” (The Broad Institute, Inc., priority 2017, dated 2021).
Values after ≈ are worked out from the molar mass of the structure shown. Read-outs that look alike come from different tables or passages of the source.

Assays:
GSK3β [1] = molecular target: T1, GSK3β (Homo sapiens (Human), UniProt P49841); assay: Mobility shift microfluidics assay; assay type: biochemical; details: 4.3 μM ATP, 60 minutes at room temperature
Description: (§6) Reactions were terminated by the addition of 10 mM ethylenediaminetetraacetic acid (EDTA). Substrate and product were separated electrophoretically, and fluorescence intensity of the substrate and product was determined by Labchip EZ Reader II (Caliper Life Sciences). The kinase activity was measured as percent conversion. The reactions were performed in duplicate for each sample. […] The results were analyzed by Genedata Assay Analyzer. The percent inhibition was plotted against the compound concentration, and the IC50 value was determined from the logistic dose-response curve fitting. Values are the average of at least three experiments.

GSK3α [2] = molecular target: T2, GSK3α (Homo sapiens (Human), UniProt P49840); assay: Mobility shift microfluidics assay; assay type: biochemical
Description: as §6

GSK3β [3] = molecular target: T1, GSK3β; assay: GSK3 beta biochemical assay (TR-FRET)
Description: (§7) 1 nM enzyme, 200 nM biotinylated peptide
(§8) 4 μM ATP (GSK3 alpha) or 2 μM ATP (GSK3 beta)
(§9) The reaction volume is 10 μL, and the final percent DMSO is 1%. The total volume of DMSO is therefore 100 nL. It is critical that the percentage of DMSO be controlled and consistent across the plate. […] The High control is with all assay components but no inhibitor, the low control is with all assay components but no enzyme.
(§10) Make 2× detection reagents in Invitrogen TR-FRET detection buffer for final 20 nM Strepavidin-d2, 1 nM Tb^2+-pSer641 antibody (using 20 μl as final volume). 2× detection=40 nM Strepavidin-d2, 2 nM Tb^2+-pSer641 antibody.
(§11) XLFit is used for results which are archived into a database. The data is normalized as a percentage of uninhibited control minus max inhibited controls.

GSK3α [4] = molecular target: T2, GSK3α; assay: GSK3 alpha biochemical assay (TR-FRET)
Description: as §7, §8, §9, §10, §11

Solubility in PBS = details: 23 °C, aqueous buffer, thermodynamic from solid
Description: Solubility of compound was tested in triplicate by diluting a 10 mM DMSO solution with PBS. Maximum concentration of compound in solution was 100 μM.
Solubility of compound was tested in triplicate by drying down a 10 mM DMSO solution and then attempting to reconstitute in 100% PBS. Maximum concentration of compound in solution was 500 μM.
Compound requirements (1% DMSO in PBS): 30 μL of a 10 mM DMSO solution. Compound requirements (PBS-only): 60 μL of a 10 mM DMSO solution. Equilibration time: 18 hours at room temperature.

[5] = Liver microsomal stability, human; assay type: in vitro ADME; details: 1 μM, 60 minutes at 37° C.
Description: (§1) Stability of compound in liver microsomes was tested in duplicate by incubating compound at 1 μM for 60 minutes at 37° C. Compound level at 60 minutes was compared to level at 0 minutes, and percent remaining was calculated. Order by selecting Microsomal Stability in Prometheus, checking boxes for desired species.
(§2) Available species: human, mouse (CD-1), and rat (Sprague-Dawley). Compound requirements: 5 μL of a 10 mM DMSO solution. Incubation time: 60 minutes at 37° C. Test Concentration: 1 μM.
(§3) Microsomes with NADPH without compound-matrix interference. Microsomes plus compound without NADPH-non-enzymatic instability.

Plasma stability, mouse = assay type: in vitro ADME, mouse (CD-1)
Description: (§4) Stability of compound in plasma was tested in duplicate by incubating compound at 5 μM for 5 hours at 37° C. Compound level at 5 hours was compared to level at 0 hours, and percent remaining was calculated. Binding to plasma proteins was tested in duplicate by incubating compound in plasma at 5 μM for 5 hours at 37° C. in the Rapid Equilibrium Dialysis (RED) Device. Compound level in plasma compartment was compared to compound level in buffer compartment to calculate percent bound. Order by selecting Plasma Stability and Plasma Protein Binding in Prometheus, checking boxes for desired species.
(§5) Available species: human, mouse (CD-1), and rat (Sprague-Dawley). Compound requirements: 15 μL of a 10 mM DMSO solution. Incubation time: 5 hours at 37° C. Test Concentration: 5 μM.

Plasma stability, human = assay type: in vitro ADME; details: human plasma, 5 μM, 5 hours at 37° C.
Description: as §4, §5

[6] = Liver microsomal stability, mouse; assay type: in vitro ADME, mouse (CD-1); details: 1 μM, 60 minutes at 37° C.
Description: as §1, §2, §3

[7] = Plasma protein binding (RED), human; assay type: in vitro ADME; details: 5 hours at 37° C., read-out: Plasma Protein Binding (Human, % bound) (converted)
Description: as §4, §5

[8] = Plasma protein binding (RED), mouse; assay type: in vitro ADME, mouse (CD-1); details: CD-1, 5 hours at 37° C., read-out: Plasma Protein Binding (Mouse, % bound) (converted)
MDR1 = assay: MDR1/MDCK assay (Example 4); assay type: in vitro ADME; details: dog, MDCK-MDR1; 5 μM, pH 7.4, 120 minutes
Description: The MDR1/MDCK assay is run at Absorption Systems. This assay is used to determine the blood-brain barrier (BBB) penetration potential of a test compound using MDR1-MDCK cell monolayers. Catalog number EA203.
Substrate • Test compound at 5 μM in HBSSg with maximum DMSO concentration not greater than 1%. Assay System • Confluent monolayers of MDR1-MDCK cells, 7 to 11 days old. Assay Conditions • Receiver well with 1% BSA in modified Hanks buffer (HBSSg) • Apical and basolateral side at pH 7.4 • Dose two monolayers in each direction (N=2) • Dose apical side for (A to B) assessment • Dose basolateral side for (B to A) assessment • Sample both apical and basolateral sides at 120 minutes • Determine the concentrations of test compound using a generic LC-MS/MS method with a minimum 4 point calibration curve. Assay QC • The quality of the cell monolayer batch is verified using control compounds before monolayers are released for use • The quality of each monolayer used in the assay is verified by a TEER measurement and by calculating the Papp for a control compound. Solubility (SOL) 1% DMSO in PBS

[9] = mouse plasma, 5 μM, 5 hours at 37° C.

T2 sequence (P49840 whole entry): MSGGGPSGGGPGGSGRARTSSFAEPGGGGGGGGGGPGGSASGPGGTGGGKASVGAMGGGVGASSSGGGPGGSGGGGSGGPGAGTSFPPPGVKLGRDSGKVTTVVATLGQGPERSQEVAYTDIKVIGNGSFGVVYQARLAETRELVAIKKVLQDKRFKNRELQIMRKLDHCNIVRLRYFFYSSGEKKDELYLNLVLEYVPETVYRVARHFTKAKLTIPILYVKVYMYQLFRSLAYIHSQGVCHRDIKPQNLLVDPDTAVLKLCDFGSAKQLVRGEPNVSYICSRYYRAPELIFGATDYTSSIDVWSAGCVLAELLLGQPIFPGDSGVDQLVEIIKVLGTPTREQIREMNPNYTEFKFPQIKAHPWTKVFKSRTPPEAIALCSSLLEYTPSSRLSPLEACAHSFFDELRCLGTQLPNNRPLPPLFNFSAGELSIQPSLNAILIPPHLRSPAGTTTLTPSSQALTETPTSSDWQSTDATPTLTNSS
T1 sequence (P49841 whole entry): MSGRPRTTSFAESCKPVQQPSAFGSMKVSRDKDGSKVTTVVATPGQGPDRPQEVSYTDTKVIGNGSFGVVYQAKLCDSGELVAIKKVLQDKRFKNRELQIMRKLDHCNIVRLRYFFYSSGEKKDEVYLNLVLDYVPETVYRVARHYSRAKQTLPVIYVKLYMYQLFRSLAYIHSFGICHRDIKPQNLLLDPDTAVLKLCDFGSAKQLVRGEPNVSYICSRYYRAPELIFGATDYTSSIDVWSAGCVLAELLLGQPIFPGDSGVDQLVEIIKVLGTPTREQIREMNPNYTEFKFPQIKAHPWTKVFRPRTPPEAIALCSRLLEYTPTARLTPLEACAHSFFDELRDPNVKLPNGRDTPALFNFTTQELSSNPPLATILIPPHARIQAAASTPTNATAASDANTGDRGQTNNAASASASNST

IC50 (GSK3β [3]) | IC50 (GSK3α [4]) | SMILES | IC50 (GSK3β [1]) | IC50 (GSK3α [2]) | other results
 |  | CC[C@]1(c2cccc(OC)c2)C2=C(CC(C)(C)CC2=O)Nc2ncsc21 | 10.5 µM | 10.6 µM | 
> 5 µM | > 5 µM | CC1(C)CC(=O)C2=C(C1)Nc1ncsc1C21CCCCc2ccccc21 (centres unmarked) [Compound 17] |  |  | 
 |  | CC1(C)CC(=O)C2=C(C1)Nc1n[nH]cc1[C@]2(C)c1ccccc1 [drawing 178] |  |  | solubility thermodynamic at 18 h (Solubility in PBS): > 500 µM; Human Liver Microsomal Stability, % remaining [5]: 100%; Plasma Stability (Mouse, % remaining) (Plasma stability, mouse): 96.6%; Plasma Stability (Human, % remaining) (Plasma stability, human): 100%; Mouse Liver Microsomal Stability, % remaining [6]: 100%
 |  | CC[C@@]1(c2ccccc2)C2=C(CC(C)(C)CC2=O)Nc2ncsc21 [drawing 173] |  |  | solubility thermodynamic at 18 h (Solubility in PBS): 17 µM (≈ 5.75 µg/mL); Human Liver Microsomal Stability, % remaining [5]: 6.6%; fraction unbound at 5 h, 5 μM [7]: 0.049; Plasma Stability (Mouse, % remaining) (Plasma stability, mouse; [9]): 100%; Plasma Stability (Human, % remaining) (Plasma stability, human): 100%; Mouse Liver Microsomal Stability, % remaining [6]: 5.6%; fraction unbound at 5 h, 5 μM [8]: 0.074
0.366 µM | 0.08 µM | CCC1(c2ccccc2)C2=C(CC3(CCCC3)CC2=O)Nc2ncsc21 (centres unmarked) [Compound 5] |  |  | 
 |  | CC[C@@]1(c2cccc(C)c2)C2=C(CC(C)(C)CC2=O)Nc2ncsc21 [drawing 176] |  |  | solubility thermodynamic at 18 h (Solubility in PBS): 75 µM (≈ 26.4 µg/mL); Human Liver Microsomal Stability, % remaining [5]: 0.7%; fraction unbound at 5 h, 5 μM [7]: 0.019; Plasma Stability (Mouse, % remaining) (Plasma stability, mouse; [9]): 97.8%; Plasma Stability (Human, % remaining) (Plasma stability, human): 98.9%; Mouse Liver Microsomal Stability, % remaining [6]: 8.2%; fraction unbound at 5 h, 5 μM [8]: 0.045
0.951 µM | 0.254 µM | CCC1(c2ccccc2)C2=C(CCC(C)(C)C2=O)Nc2ncsc21 (centres unmarked) [Compound 3] |  |  | 
 |  | CC[C@@]1(c2ccccc2)C2=C(CC3(CCCCC3)CC2=O)Nc2ncsc21 | 0.447 µM | 0.155 µM | 
0.927 µM | 0.365 µM | CCC1(c2ccccc2)C2=C(CC(C(C)C)CC2=O)Nc2ncsc21 (centres unmarked) [Compound 8] |  |  | 
0.644 µM | 0.189 µM | CCC1(c2ccccc2)C2=C(CC(CC(C)C)CC2=O)Nc2ncsc21 (centres unmarked) [Compound 10] |  |  | 
 |  | CC[C@]1(c2cccc(F)c2)C2=C(CC(C)(C)CC2=O)Nc2ncsc21 (single isomer, unassigned) | > 30 µM | > 30 µM | 
 |  | CC1(C)CC(=O)C2=C(C1)Nc1ncsc1[C@@]2(C)c1ccccc1 | 28.6 µM | 18.5 µM | 
 |  | CC[C@@]1(c2cccc(C)c2)C2=C(CC(C)(C)CC2=O)Nc2ncsc21 [drawing 163] | 0.245 µM | 0.069 µM | 
 |  | CC[C@]1(c2ccccc2)C2=C(CC3(CCCCC3)CC2=O)Nc2ncsc21 | 1.89 µM | 3.66 µM | 
 |  | CC[C@@]1(c2ccccc2)C2=C(CC(C)(C)CC2=O)Nc2n[nH]cc21 [drawing 170] | 0.507 µM |  | 
> 5 µM | > 5 µM | CC1(C)CC(=O)C2=C(C1)Nc1ncsc1C21CCCc2ccccc21 (centres unmarked) [Compound 16] |  |  | 
 |  | CC[C@@]1(c2ccccc2)C2=C(CC(C)(C)CC2=O)Nc2ncsc21 [drawing 157] | 0.065 µM | 0.014 µM | 
 |  | Cc1c[nH]c(-c2cnc(NCCNc3ccc(C#N)cn3)nc2-c2ccc(Cl)cc2Cl)n1 [drawing 185] |  |  | Papp A→B at 120 min, 5 μM (MDR1): 6.5 ×10⁻⁶ cm/s; Papp B→A at 120 min, 5 μM (MDR1): 64.2 ×10⁻⁶ cm/s
 |  | CC[C@@]1(c2cccc(F)c2)C2=C(CC(C)(C)CC2=O)Nc2ncsc21 [drawing 159] | 2.27 µM | 0.599 µM | 
0.619 µM | 0.187 µM | CCC1(c2ccc(C)cc2)C2=C(CC(C)(C)CC2=O)Nc2ncsc21 (centres unmarked) [Compound 13] |  |  | 
 |  | CC[C@@]1(c2cccc(Cl)c2)C2=C(CC(C)(C)CC2=O)Nc2ncsc21 |  |  | solubility thermodynamic at 18 h (Solubility in PBS): 37 µM (≈ 13.8 µg/mL); Human Liver Microsomal Stability, % remaining [5]: 0.0%; fraction unbound at 5 h, 5 μM [7]: 0.018; Plasma Stability (Mouse, % remaining) (Plasma stability, mouse; [9]): 98.1%; Plasma Stability (Human, % remaining) (Plasma stability, human): 98.7%; Mouse Liver Microsomal Stability, % remaining [6]: 11.1%; fraction unbound at 5 h, 5 μM [8]: 0.023
